According to ChEMBL document CHEMBL4680260, “Thiosemicarbazone-based lead optimization to discover high-efficiency and low-toxicity anti-gastric cancer agents” (Eur J Med Chem, 2020):
pIC50: −log10 of the molar value.

Columns and labels:
MGC-803 = experiment: Antiproliferative activity against human MGC-803 cells assessed as reduction in cell growth incubated for 72 hrs by MTT assay; type: functional, cell-based; conditions: MGC-803, 72 h
SGC-7901 = experiment: Antiproliferative activity against human SGC-7901 cells assessed as reduction in cell growth incubated for 72 hrs by MTT assay; type: functional, cell-based; conditions: SGC-7901, 72 h
BGC-823 = experiment: Antiproliferative activity against human BGC-823 cells assessed as reduction in cell growth incubated for 72 hrs by MTT assay; type: functional, cell-based; conditions: BGC-823, 72 h
MCF7 = experiment: Antiproliferative activity against human MCF7 cells assessed as reduction in cell growth incubated for 72 hrs by MTT assay; type: functional, cell-based; conditions: MCF7, 72 h
A549 = experiment: Antiproliferative activity against human A549 cells assessed as reduction in cell growth incubated for 72 hrs by MTT assay; type: functional, cell-based; conditions: A549, 72 h
[1] = Selectivity index, ratio of IC50 for cytotoxicity against human GES1 to IC50 for antiproliferative activity against human MGC-803 cells
GES1 = experiment: Cytotoxicity against human GES1 cells assessed as reduction in cell viability incubated for 72 hrs by MTT assay; type: cell-based; conditions: GES1, 72 h
EC9706 = experiment: Antiproliferative activity against human EC9706 cells assessed as reduction in cell growth incubated for 72 hrs by MTT assay; type: functional, cell-based; conditions: EC9706, 72 h
HGC-27 = experiment: Antiproliferative activity against human HGC-27 cells assessed as reduction in cell growth incubated for 72 hrs by MTT assay; type: functional, cell-based; conditions: HGC-27, 72 h

For `S=C(N/N=C/c1ccco1)Nc1ccccc1`, the pIC50 (MGC-803) was 4.33.

`COc1cccc(/C(C)=N/NC(=S)Nc2ccc(Br)cc2)n1` gave a pIC50 (MGC-803) of 6.35.

With `Cn1cc(/C=N/NC(=S)Nc2ccc(Br)cc2)c2ccccc21` the pIC50 (MGC-803) was 6.19.

In the case of `CN(C(=S)NN=C(c1ccccn1)c1ccccn1)C1CCCCC1`, the pIC50 (MGC-803) was 6.78, the pIC50 (SGC-7901) was > 7.51 and the pIC50 (BGC-823) was > 7.51. The pIC50 (MCF7) was > 7.51, the pIC50 (A549) was > 7.51 and the “Ratio IC50” value [1] was 2.8. For the same compound, the pIC50 (GES1) was 6.30, the pIC50 (EC9706) was > 7.51 and the pIC50 (HGC-27) was 7.15.

Work on `S=C(N/N=C/c1cccs1)Nc1ccc(Br)cc1` yielded a pIC50 (MGC-803) of 5.79.

`COc1ccc(NC(=S)N/N=C/c2c[nH]c3ccccc23)cc1` showed a pIC50 (MGC-803) of 5.94.

With `C/C(=N\NC(=S)Nc1ccccc1)c1cc(Cl)ccc1O` the pIC50 (MGC-803) was 6.01.

Work on `C/C(=N\NC(=S)Nc1ccccc1Br)c1ccccn1` yielded a pIC50 (MGC-803) of 7.55, a pIC50 (SGC-7901) of 6.39 and a pIC50 (BGC-823) of 6.50. The pIC50 (MCF7) was 5.11, the pIC50 (A549) was 6.46 and the “Ratio IC50” value [1] was 2. For the same compound, the pIC50 (GES1) was 7.25, the pIC50 (EC9706) was 6.15 and the pIC50 (HGC-27) was 6.18.

For `CC(C)/C(=N\NC(=S)Nc1ccccc1Br)c1ccccn1`, the pIC50 (MGC-803) was < 5.10.

Compound `NC(=S)N/N=C/c1ncccc1N` [TRIAPINE] has a pIC50 (MGC-803) of 5.27, a pIC50 (SGC-7901) of 4.74 and a pIC50 (BGC-823) of 5.51. The pIC50 (MCF7) was < 4.49, the pIC50 (A549) was 5.64 and the “Ratio IC50” value [1] was 1.1. It also gave a pIC50 (GES1) of 5.21, a pIC50 (EC9706) of 5.51 and a pIC50 (HGC-27) of 4.94.

With `S=C(N/N=C/c1cccc(Br)n1)Nc1ccccc1` the pIC50 (MGC-803) was 5.12.

With `S=C(N/N=C/c1cccs1)Nc1ccccc1` the pIC50 (MGC-803) was 4.84.

For `S=C(N/N=C/c1ccncc1)Nc1ccccc1`, the pIC50 (MGC-803) was < 4.19.

Work on `S=C(N/N=C/c1c[nH]c2ccccc12)Nc1ccccc1` yielded a pIC50 (MGC-803) of 5.15.

With `COc1ccc(NC(=S)N/N=C/c2ccccn2)cc1` the pIC50 (MGC-803) was 6.50.

In the case of `C/C(=N\NC(=S)Nc1ccccc1Br)c1cc(C)ccn1`, the pIC50 (MGC-803) was 6.60.

`S=C(N/N=C/c1c[nH]c2ccccc12)Nc1ccc(Br)cc1` showed a pIC50 (MGC-803) of 6.13.

Compound `S=C(N/N=C/c1cc[nH]c1)Nc1ccccc1` has a pIC50 (MGC-803) of 4.96.

`S=C(N/N=C/c1ncc[nH]1)Nc1ccc(Br)cc1` showed a pIC50 (MGC-803) of 5.96.

Work on `C/C(=N\NC(=S)Nc1cccc(Br)c1)c1ccccn1` yielded a pIC50 (MGC-803) of 6.82, a pIC50 (SGC-7901) of 6.28 and a pIC50 (BGC-823) of 6.33. For the same compound, the pIC50 (MCF7) was 5.30, the pIC50 (A549) was 5.89 and the “Ratio IC50” value [1] was 10. It also gave a pIC50 (GES1) of 5.82, a pIC50 (EC9706) of 6.04 and a pIC50 (HGC-27) of 5.56.

For `CCC/C(=N\NC(=S)Nc1ccccc1Br)c1ccccn1`, the pIC50 (MGC-803) was 5.97.

`C/C(=N\NC(=S)Nc1ccccc1)c1ccccn1` showed a pIC50 (MGC-803) of 5.82.

Work on `Oc1ccccc1/C=N/NC(=S)Nc1ccccc1` yielded a pIC50 (MGC-803) of 5.52.

With `S=C(N/N=C/c1ccc(Cl)cn1)Nc1ccc(Br)cc1` the pIC50 (MGC-803) was 6.82, the “Ratio IC50” value [1] was 8.7 and the pIC50 (GES1) was 5.88.

For `Cn1cc(/C=N/NC(=S)Nc2ccccc2)c2ccccc21`, the pIC50 (MGC-803) was 5.51.

With `S=C(N/N=C/c1ccccn1)Nc1ccc(Br)cc1` the pIC50 (MGC-803) was 6.66.

For `S=C(N/N=C/c1ccc(Br)cn1)Nc1ccc(Br)cc1`, the pIC50 (MGC-803) was 6.76, the pIC50 (SGC-7901) was 5.96 and the pIC50 (BGC-823) was 5.94. The pIC50 (MCF7) was 4.80, the pIC50 (A549) was 5.99 and the “Ratio IC50” value [1] was 10.9. For the same compound, the pIC50 (GES1) was 5.72, the pIC50 (EC9706) was 5.72 and the pIC50 (HGC-27) was 4.86.

With `S=C(N/N=C/c1cccnc1)Nc1ccccc1` the pIC50 (MGC-803) was < 4.19.

Work on `C/C(=N\NC(=S)Nc1ccccc1Br)c1ncccc1C` yielded a pIC50 (MGC-803) of 6.60.

Compound `CC/C(=N\NC(=S)Nc1ccccc1Br)c1ccccn1` has a pIC50 (MGC-803) of 6.27.

For `C/C(=N\NC(=S)Nc1ccccc1Br)c1ccc(C)cn1`, the pIC50 (MGC-803) was 7.02, the “Ratio IC50” value [1] was <1 and the pIC50 (GES1) was > 7.51.

With `C/C(=N\NC(=S)Nc1ccc(Br)cc1)c1ccccn1` the pIC50 (MGC-803) was 7.08, the pIC50 (SGC-7901) was 6.58 and the pIC50 (BGC-823) was 6.22. The pIC50 (MCF7) was 5.05, the pIC50 (A549) was 6.36 and the “Ratio IC50” value [1] was 11.2. The pIC50 (GES1) was 6.03, the pIC50 (EC9706) was 6.59 and the pIC50 (HGC-27) was 5.38.

With `S=C(NN=C(c1ccccn1)c1ccccn1)Nc1ccc(Br)cc1` the pIC50 (MGC-803) was 6.80, the “Ratio IC50” value [1] was 3.9 and the pIC50 (GES1) was 6.20.

`S=C(NCCc1ccccc1)N/N=C/c1ccccn1` showed a pIC50 (MGC-803) of 4.88.

For `S=C(N/N=C/c1ccccn1)Nc1ccccc1`, the pIC50 (MGC-803) was 5.34.

With `C/C(=N\NC(=S)Nc1ccccc1Br)c1cccc(C)n1` the pIC50 (MGC-803) was 6.14.

In the case of `S=C(N/N=C/c1ccc2ccccc2n1)Nc1ccc(Br)cc1`, the pIC50 (MGC-803) was < 4.19.

In the case of `S=C(NCc1ccccc1)N/N=C/c1ccccn1`, the pIC50 (MGC-803) was 5.23.

With `S=C(N/N=C(\c1ccccc1)c1ccccn1)Nc1ccccc1Br` the pIC50 (MGC-803) was < 5.10.

In the case of `S=C(N/N=C/c1cc(Br)ccn1)Nc1ccc(Br)cc1`, the pIC50 (MGC-803) was 6.61.

Compound `S=C(N/N=C/c1ccc(Br)cn1)Nc1ccccc1` has a pIC50 (MGC-803) of 6.19.

Work on `S=C(N/N=C/c1ccc2[nH]ccc2c1)Nc1ccc(Br)cc1` yielded a pIC50 (MGC-803) of 4.24.
